{"source": "a melting point compilation (Tetko et al.; mined from patent text by program, amines drawn as free bases though some values may be those of a salt)", "note": "Residues, ends and D or L forms follow the SMILES beside them. *: point of attachment. Cbz = O=C(OCc1ccccc1)*; tBu = CC(C)(C)*"}
{"units": {"melting point": "°C"}}
{"smiles": "CSc1cc(C)c2ccc(N)nc2n1", "melting point": "204 to 209"}
{"smiles": "COc1cc(C)nc(NC(=O)NS(=O)(=O)c2c(Br)csc2C(=O)c2cccs2)n1", "melting point": 106}
{"smiles": "COC(=O)C(Cc1ccccc1)NC(=O)C(Cc1ccc(OC(C)(C)C)cc1)NC(=O)OCc1ccccc1", "note": "(stereo not given) (Cbz-Tyr(tBu)-Phe-OMe; configuration not given here)", "melting point": "106 to 107"}
{"smiles": "CCCCCCCOc1cc2c(cc1C(=O)c1ccc(C(=O)O)cc1)C(C)(C)CCC2(C)C", "melting point": "154 to 158"}
{"smiles": "O=C(O)COc1cccc2c1Cc1sc(S(=O)(=O)CCCC(c3ccccc3)c3ccccc3)nc1-2", "melting point": "97 to 101"}
{"smiles": "OC1CCN(Cc2ccc(Br)cn2)CC1", "melting point": "52 to 54"}
{"smiles": "N=C(N)c1ccc(N2CCN(C3CCC(CCC(=O)O)CC3)C2=O)cc1", "note": "(stereo not given)", "melting point": "> 200"}
{"smiles": "CCOC(=O)c1cccc2c1CCC2C#N", "note": "(stereo not given)", "melting point": "93 to 95.5"}
{"smiles": "CC(C)(C)Sc1ccc(CN(O)C(N)=O)s1", "melting point": "101 to 103"}
{"smiles": "Nc1nc(N)nc(-c2ccc3c(c2)OC(F)(F)C(F)(F)O3)n1", "melting point": "176 to 179"}
{"smiles": "COc1cc(NC(=O)NC(=O)c2c(F)cccc2F)ccc1OC(F)(F)C(F)(F)c1ccc(Cl)cc1", "melting point": "133 to 134"}
{"smiles": "COC(=O)c1cnn2c(C(F)(F)F)cc(Cl)nc12", "melting point": "126 to 127"}
{"smiles": "N#Cc1cccc2c1CC(=NN)c1cc(F)ccc1S2", "melting point": "220 to 222"}
{"smiles": "CC(C)C(=N)Nc1ccccc1N1CCOCC1", "melting point": 138}
{"smiles": "COC12CC(CO)CN(C)C1Cc1cn(C(C)(C)C)c3cccc2c13", "note": "(stereo not given)", "melting point": "172 to 174"}
{"smiles": "c1ccc(-c2[nH]c3ccccc3c2CCC2CCNCC2)cc1", "melting point": 183}
{"smiles": "CC(C)(C)CC(C)(C)c1ccc(Oc2cc3nc(-c4ccco4)oc3cc2[N+](=O)[O-])cc1", "melting point": "146 to 148"}
{"smiles": "CC(C)OC(=O)Cn1c(=O)n(C)c(=O)n(-c2cc(N=c3sc(=O)n4n3CCCCC4)c(F)cc2Cl)c1=O", "melting point": "95 to 106"}
{"smiles": "COc1ccc(OC)c2c1C[C@](O)(CC#N)CC2=O", "melting point": "160 to 162"}
{"smiles": "COc1cc(-c2nc(NC(=O)c3c(C)c4cc(C)ccc4n3CC(=O)O)sc2CCC2CCCCC2)c(OC)cc1C", "melting point": "150 to 152"}
{"smiles": "CC(=O)NC=Cc1ccc(OC(C)=O)cc1", "melting point": "165 to 166"}
{"smiles": "CN1CCN(c2cc(Cl)cc3c2c(=O)n(Cc2ccc(O)cc2)c(=O)n3Cc2ccccc2)CC1", "melting point": "138 to 140"}
{"smiles": "Cc1ccc(-c2occc2C(N)=O)cc1", "melting point": 174}
{"smiles": "OCCNC(=S)C1(c2ccccn2)CCCS1", "note": "(stereo not given)", "melting point": 132}
{"smiles": "CC(=O)Nc1ccc(C#N)cc1I", "melting point": "176 to 181"}
{"smiles": "Cc1cc(-c2cnn3c(C(F)(F)F)cc(-c4ccc(C(F)(F)F)cc4)nc23)ccn1", "melting point": 243}
{"smiles": "COC(=O)c1ccc(N2CCN(S(C)(=O)=O)CC2)nc1", "melting point": "205 to 207"}
{"smiles": "CC(C)(C)OC(=O)N1CCN(c2ccc(N)cc2C#N)CC1", "melting point": 145}
{"smiles": "O=C(Nc1ccc(Cl)c(Cl)c1)N(O)Cc1ccccc1", "melting point": 157}
{"smiles": "Cc1ccccc1-c1nc(COc2cccc3cc(NS(=O)(=O)C(F)(F)F)ccc23)co1", "melting point": "127 to 130"}
{"smiles": "CCOC(=O)c1cn(-c2cccnc2)nc1Cl", "melting point": "90 to 93"}
{"smiles": "CC(=O)c1cnc2c(c1)oc(=O)n2CCc1ccncc1", "melting point": "148 to 150"}
{"smiles": "Cc1ccc(N=C=S)c(C)c1COC(=O)[C@H]1[C@@H](C=C(Cl)C(F)(F)F)C1(C)C", "note": "(relative stereo)", "melting point": 60}
{"smiles": "COc1ccc(-c2cccc(NC(N)=O)c2)cc1OC1CCCC1", "melting point": "174 to 175"}
{"smiles": "CCCC(=O)N(C)SN(C(=O)NC(=O)c1c(F)cccc1F)c1ccc(Oc2ccc(C(F)(F)F)cc2Cl)cc1F", "melting point": "136 to 138"}
{"smiles": "CCCCCS(=O)(=O)NC(=O)/C=C/c1ccc(C)n1Cc1ccc(Cl)cc1Cl", "melting point": "189 to 190"}
{"smiles": "CCn1c(=O)c2c(nc(/C=C/c3ccc(OC)c(O)c3)n2C)n(CC)c1=O", "melting point": "204 to 206"}
{"smiles": "CCCCc1c(C(=O)OCC)cc(OC(C)=O)c2c(OC)cccc12", "melting point": "86 to 88"}
{"smiles": "CCC(Cl)c1ccc(CCNS(=O)(=O)c2ccc(Cl)cc2)cc1", "note": "(stereo not given)", "melting point": "90 to 91"}
{"smiles": "Cc1nnc2c3ccc(Cl)cc3c(-c3ccccc3)nn12", "melting point": "236 to 238"}
{"smiles": "COC(=O)CCCc1cc2nc(Cl)ccc2n1S(=O)(=O)c1ccc(OC)cc1", "melting point": 96}
{"smiles": "CN(Cc1cc(C(F)(F)F)cc(C(F)(F)F)c1)C(=O)c1nc(N2CCOCC2)ncc1-c1ccccc1", "melting point": "154 to 155"}
{"smiles": "CSc1nn2c(N)cc(C3CC3)nc2c1S(=O)(=O)c1ccccc1", "melting point": "> 230"}
{"smiles": "COc1cc2c(cc1OC)NC1=C(C2)C(=O)N(C)CN1", "melting point": "225 to 230"}
{"smiles": "O=C(c1ccc(-n2cncn2)cc1)N1CCC(NCc2ccccc2)CC1", "melting point": "137 to 138"}
{"smiles": "CCCc1c(COc2ccc(Cc3nnn(Cc4nnn[nH]4)n3)cc2)ccc(C(C)=O)c1O", "melting point": "137 to 139"}
{"smiles": "CCn1nccc1NC(=O)c1cc(C(=O)OC)c(O)c2ncc(Cc3ccc(F)cc3)cc12", "melting point": "219 to 220"}
{"smiles": "CCOC(=O)C(=CNc1nnc(C(F)(F)F)s1)C(=O)c1cc(F)c(Cl)nc1Cl", "melting point": "73 to 76"}
{"smiles": "CN(C)c1nc2sc3c(NCc4cccnc4)ncnc3c2c2c1CCC2(C)C", "melting point": "237 to 238"}
{"smiles": "CCc1[nH]nc(C(=O)NC2CCCC2)c1NC(=O)c1cnccn1", "melting point": "175 to 176"}
